Experimental data as given in patent publication US7741287B2, “Peptides for the treatment of herpes virus infections” (IPF PharmaCeuticals GmbH, priority 2004, dated 2010).
Where no end group is shown, it is not given here.

Tested on: HSV-2
Assay type: cell-based, herpes simplex virus type 2 (HSV-2)
Details: ELVIS cell infection assay; virus not given

VCVLAHHFGKEF [VCVLAHHFGKEF (SEQ ID NO:2)]
antiviral activity in cellular infection assay: high activity
